Assay results from patent US9375413B2, “Methods of reducing milk somatic cell count” ([…], priority 2014, dated 2016).

Assays:
[1] = system: Twin-bearing, multiparous Romney ewes; assay: Milk composition (crude protein, somatic cell count, fat, lactose) and milk yield after L-arginine supplementation from day 100 of pregnancy to parturition (Example 1); assay type: in vivo, sheep
Source text: (§1) Twin-bearing, multiparous Romney ewes were housed in individual stalls and fed once daily, a lucerne-based pellet diet formulated to meet 100% of the NRC-recommended maintenance requirements for twin-bearing pregnant and lactating ewes throughout the trial.
(§2) From day 100 of pregnancy to parturition, ewes received either an injected bolus of L-arginine-mono-hydrochloride (L-arginine-HCL; Merck KGaA, Darmstadt, Germany; 345 μmol/kg body weight (BW)) or a control being approximately the same volume of sterile saline injected three times daily (0800, 1600, 2400 hrs).
At the first sign of labour induction, which was between 1 and 10 hours (h) prior to birth, L-arginine treatment ceased and ewes were allowed to lamb naturally. In total 25 ewes were used (arginine group, n=13; control group n=12).
Ewes were assigned to milking groups based on parturition date. Collection of a colostrum sample within the 12 h post partum could have compromised animal behaviour and ewe-lamb bond formation. Therefore, a range of 0.58-1.22 days in lactation was produced when the “colostrum” sample was collected. Ewes were then milked approximately at day 1, 4, 7, 10 and 14 of lactation, using the oxytocin method. At each milking, ewes were milked by machine followed by hand stripping, after an intravenous injection of 1 IU of synthetic oxytocin (Oxytocin V, 10 IU/mL). The time when the udder was empty was recorded. Animals were milked again (machine and hand-stripping) approximately 4 h later, with the time and weight of the milk recorded. Lambs were separated from the ewes and bottle-fed as required during the intervening period, using the milk collected from their respective dam. The same operators milked all ewes on each occasion in this study using a mobile milking machine. Milk obtained after the 4 h intervening period was subsampled for analysis of milk composition (% fat, % crude protein (CP), % lactose and somatic cell count). Milk samples were preserved with bronopol and refrigerated at 4° C. until analysis using a FT120-FTIR, calibrated for sheep milk. Two reference checks (fat and CP) were taken during lactation to account for changes in the matrix of the milk due to stage of lactation. Somatic cell counts were determined using a bromide based fluorescent dye and a FOSS flow Cytometer and values log transformed. Ewes were weighed and body condition scored (scale of 1 to 5) once a week.
Throughout milking, dams and offspring were housed in individual pens immediately adjacent to each other. Daily milk yield was calculated. Repeated measures analysis of milk yield and composition using the MIXED procedure with a linear model that included the fixed effects of dam, dam treatment group, and the covariates average dam live weight, average dam body condition score and days in lactation were included in the model. From the 25 ewes available only 18 were used for statistical analysis (arginine group n=8; control group n=10).

[2] = system: Twin-bearing, multiparous Romney ewes; assay: Milk free amino acid profiles by HPLC (Example 1); assay type: in vivo, sheep; conditions: saline-treated controls compared to L-arginine treated ewes
Source text: as §1, §2
Milk free amino acids (FAA) were analysed using High-Performance Liquid Chromatography (HPLC). Skim milk (500 μL) was mixed with 500-4, lithium extraction buffer (14 g/L lithium chloride, 3 g/L lithium hydroxide, 1 g/L phenol, 50 g/L sulfosalic acid) and placed on ice for 15 to 20 min. Volumes of 10-μL lithium hydroxide (5.88 M) were added to the sample to obtain a final pH of 1.5 to 2. This was followed by centrifugation at 13,680×g for 5 min at 4° C., and the resulting supernatant was filtered through a 4 mm 0.2 μm syringe filter. The filtered sample was analysed for FAA using a Shimadzu LC 10Ai HPLC, fitted with a high-efficiency lithium-ion exchange column (3 mm i.d.×150 mm) Injected volumes were 10 μL, the reagent flow rate was 0.3 mL/min, and the run was 162 min between injections, using lithium buffers as elutants and ninhydrin post column derivatization. Free amino acid values are reported as μmol per liter of milk. Differences between treatment groups were analysed using the MIXED procedure (SAS) with a linear model that included the fixed effects of dam, dam treatment group, and the covariates average dam live weight, average dam body condition score and days in lactation were included in the model.

[3] = Effect of i.v. bolus on plasma arginine concentration; assay type: in vivo, sheep
Description: FIG. 4 is a graph from the above study illustrating plasma arginine concentrations immediately prior to (−5 min) and 30, 60 and 180 minutes following an i.v. bolus of arginine or saline (controls) in twin-bearing ewes (n=9/group) at 120 days gestation.
FIG. 5 is a graph from the above study illustrating plasma arginine concentrations 1 hour following a bolus of arginine or saline (controls) and immediately prior to slaughter at day 140 gestation in twin-bearing ewes (n=6/group).
To determine the magnitude of the increase in circulating Arg concentrations following a single bolus (3 boluses were given each day), plasma samples collected from all ewes at day 120 of gestation at time −5 (immediately prior to bolus), 30, 60 and 180 minutes following the bolus (Arg or saline) were analysed for Arg concentration using reverse-phase high-performance liquid chromatography (Sales et al., 2012). Nine ewes per treatment group were randomly selected for analysis.

twin-bearing ewes = assay: Somatic cell count (SCC) in milk after arginine supplementation in mid-late gestation (Example 2); assay type: in vivo, sheep; conditions: for somatic cell count (SCC) lower than controls: trend P<0.15
Source text: FIG. 3 is a graph from a further study confirming the effect of arginine supplementation from 100 days gestation to birth in twin-bearing ewes on somatic cell count (SCC) in milk. Data was log transformed for analysis—back transformed values are presented.
In a second experiment ewes were supplemented with arginine during mid-late gestation that stopped at parturition.

sheep = conditions: not in gestation, one off dose; cited from earlier work
[4] = system: non-gestational (and pre-ruminant) calves; conditions: cited from earlier work

Cl.N=C(N)NCCC[C@H](N)C(=O)O [L-arginine, L-arginine-mono-hydrochloride]
MSC count compared to control animals ([1]; between day 1 and day 4 post parturition and administration stopping): significantly lower
Milk somatic cell counts ([1]; day 4-14 of lactation, compared to saline-treated controls): decreased
MSC counts ([1]; ewes treated with L-arginine, untreated ewes higher than 500,000): below 300,000
fat percentage ([1]; milk, day 1 of lactation, saline-treated controls compared to L-arginine treated ewes): trend for increased fat percentage at day 1 in saline-treated controls
Crude protein percentage ([1]; milk, day 4-7 of lactation, compared to saline-treated controls, 345 μmol/kg BW three times daily): increased
crude milk protein percentage ([1]; milk, day 14 of lactation, saline-treated controls compared to L-arginine-treated ewes): trend for increased crude milk protein percentage was observed in saline-treated controls
lactose percentage ([1]; milk, post parturition, versus saline-treated controls): No effect
duration of protective response in terms of milk somatic cell count ([1]; post administration (administration day 100 to parturition)): at least 14 days
milk yield ([1]; post parturition, versus saline-treated controls): No effect
absolute milk free concentration of histidine ([2]; day 7 post parturition): significantly decreased in saline-treated controls
absolute milk free concentration of phenyalanine ([2]; day 7 post parturition): significantly decreased in saline-treated controls
absolute milk free concentration of tryptophan ([2]; day 7 post parturition): significantly decreased in saline-treated controls
absolute milk free concentration of tyrosine ([2]; day 7 post parturition): significantly decreased in saline-treated controls
milk free asparagine ([2]; day 14 post parturition): significantly decreased
milk free glutamate ([2]; day 14 post parturition): trends for decreased
milk free leucine ([2]; day 14 post parturition): trends for decreased
milk free tyrosine ([2]; day 14 post parturition): trends for decreased
increase in circulating Arg concentrations ([3]; 30 minutes following single i.v. bolus, day 120 of gestation): 4 fold
plasma Arg relative to controls ([3]; 1 hour following a bolus, immediately prior to slaughter at 140 days of gestation, P<0.0001): 4.6 times higher than controls
time for circulating concentrations of Arg to return to baseline ([3]; after i.v. bolus, day 120 of gestation): ≤ 3 h
elevated circulating Arg concentrations relative to control ([3]; until at least 60 minutes post-dosage, single i.v. bolus, day 120 of gestation): 3 times the control
variation in SCC between animals (twin-bearing ewes; control compared to arginine-supplemented ewes, at each time-point and over time): greater in the control
somatic cell count (SCC) lower than controls (twin-bearing ewes; day 1 (colostrum) of lactation): 77%
somatic cell count (SCC) lower relative to controls (twin-bearing ewes; day 7 of lactation): ~75%
somatic cell count (SCC) lower than controls (twin-bearing ewes; day 10 of lactation): 53%
somatic cell count (SCC) lower relative to controls (twin-bearing ewes; day 14 of lactation): ~75%
SCC in milk (twin-bearing ewes; throughout the period of study, control ewes 787,000-2,594,000 cells/ml): 366,000-589,000 cells/ml
plasma white blood cell levels (sheep): increase in white blood cell levels
antibody production in plasma [4]: reduction in antibody production
